molecular target: Probable G-protein coupled receptor 34 (Homo sapiens, UniProt Q9UPC5); assay: Antagonist activity against human lung GPR34 expressed in CHO cells co-expressing Galpha116 assessed as inhibition of lysophosphatidyl serine-induced increase in intracellular calcium level pre-incubated before lysophosphatidyl serine addition and measured after 180 secs by Fluo 3-AM dye based fluorescent assay; type: functional, cell-based
Sequence (Q9UPC5 whole entry): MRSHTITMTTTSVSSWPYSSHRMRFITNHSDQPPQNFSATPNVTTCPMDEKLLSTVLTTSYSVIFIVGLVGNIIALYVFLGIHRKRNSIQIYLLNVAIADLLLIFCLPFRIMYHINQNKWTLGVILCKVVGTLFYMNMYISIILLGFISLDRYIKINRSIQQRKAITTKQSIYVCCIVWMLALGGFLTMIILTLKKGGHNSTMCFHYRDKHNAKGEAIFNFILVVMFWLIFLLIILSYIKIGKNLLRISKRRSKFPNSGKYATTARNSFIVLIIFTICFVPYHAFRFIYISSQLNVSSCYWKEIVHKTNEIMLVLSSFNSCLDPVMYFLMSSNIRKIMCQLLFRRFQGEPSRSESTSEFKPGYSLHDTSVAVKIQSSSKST

Row | Structure (SMILES) | IC50
1 | Nc1ccccc1COc1ccc(CC(=O)NC2(C(=O)O)Cc3ccc(-c4ccc(Cl)cc4)cc3C2)cc1 (centres undefined) | ≤ 1000 nM
2 | O=C(Cc1ccc(OC2Cc3ccccc3C2)cc1)NC1(C(=O)O)Cc2ccc(-c3ccc(Cl)cc3)cc2C1 (centres undefined) | ≤ 1000 nM
3 | O=C(N[C@@H](Cc1ccc(OCc2ccsc2)cc1)C(=O)O)c1cn2cc(-c3ccc(Cl)cc3)ccc2n1 | ≤ 1000 nM
4 | O=C(NC(Cc1ccc(OCc2ccccc2)cc1)c1nnn[nH]1)c1cn2nc(-c3ccc(Cl)cc3)ccc2n1 (centres undefined) | ≤ 1000 nM
5 | Nc1c(C(=O)NC(Cc2ccc(OCc3ccccc3)cc2)C(=O)O)oc2ccc(-c3ccc(Cl)cc3)cc12 (centres undefined) | ≤ 1000 nM
6 | O=C(NC(Cc1ccc(OCc2ccccc2)cc1)c1nnn[nH]1)c1cn2cc(-c3ccc(Cl)cc3)ccc2n1 (centres undefined) | ≤ 1000 nM
7 | O=C(Cc1ccc(OCc2ccc(F)cc2)cc1)NC1(C(=O)O)Cc2ccc(-c3ccc(Cl)s3)cc2C1 (centres undefined) | ≤ 1000 nM
8 | O=C(NC(Cc1ccc(OCc2ccc(F)cc2)cc1)C(=O)O)c1cn2cc(-c3ccc(Cl)cc3)ccc2n1 (centres undefined) | ≤ 1000 nM
9 | Cc1c(C(=O)N[C@@H](Cc2ccc(OCc3ccsc3)cc2)C(=O)O)oc2cc(-c3ccc(Cl)cc3)ccc12 | ≤ 1000 nM
10 | Cc1c(C(=O)N[C@H](C(=O)O)c2ccc(OCc3ccccc3)cc2)oc2cc(-c3ccc(Cl)cc3)ccc12 | ≤ 1000 nM
11 | Nc1cccc(COc2ccc(CC(=O)NC3(C(=O)O)Cc4ccc(-c5ccc(Cl)cc5)cc4C3)cc2)c1 (centres undefined) | ≤ 1000 nM
12 | O=C(Cc1ccc(OCc2ccsc2)cc1)NC1(C(=O)O)Cc2ccc(-c3ccc(Cl)cc3)cc2C1 (centres undefined) | ≤ 1000 nM
13 | Cc1c(C(=O)N[C@@H](Cc2ccc(OCc3ccccc3)cc2)C(=O)O)oc2cc(-c3ccc(Cl)cc3)ccc12 | ≤ 1000 nM
14 | O=C(N[C@@H](Cc1ccc(OCc2ccccc2)cc1)C(=O)O)c1cn2ccc(-c3ccc(Cl)cc3)cc2n1 | ≤ 1000 nM
15 | O=C(Cc1ccc(OCc2ccc(F)cc2)cc1)NC1(C(=O)O)Cc2ccc(-c3cccc(Cl)c3)cc2C1 (centres undefined) | ≤ 1000 nM
16 | O=C(Cc1ccc(OCc2ccc(F)cc2)cc1)NC1(C(=O)O)Cc2ccc(-c3ccc(Cl)cc3)cc2C1 (centres undefined) | ≤ 1000 nM
17 | O=C(Cc1ccc(OCc2ccccc2)cc1)NC1(C(=O)O)Cc2ccc(-c3ccc(Cl)cc3)cc2C1 (centres undefined) | ≤ 1000 nM
18 | O=C(NC(Cc1ccc(OCc2ccccc2)cc1)C(=O)O)c1cn2cc(CCc3ccccc3)ccc2n1 (centres undefined) | ≤ 1000 nM

Results, then the compound that gave them:

Row | IC50 | Structure (SMILES)
19 | ≤ 1000 nM | O=C(Cc1ccc(Oc2ccccc2)cc1)NC1(C(=O)O)Cc2ccc(-c3ccc(Cl)cc3)cc2C1 (centres undefined)
20 | ≤ 1000 nM | O=C(O)C1(NS(=O)(=O)Cc2ccc(F)cc2)Cc2ccc(-c3ccc(Cl)cc3)cc2C1 (centres undefined)
21 | ≤ 1000 nM | O=C(Cc1ccc(Oc2nc3ccccc3s2)cc1)NC1(C(=O)O)Cc2ccc(-c3ccc(Cl)cc3)cc2C1 (centres undefined)
22 | ≤ 1000 nM | Cc1ccc(COc2ccc(CC(NC(=O)c3cc4ccc(-c5ccc(Cl)cc5)cc4o3)C(=O)O)cc2)cc1 (centres undefined)
23 | ≤ 1000 nM | O=C(O)CN(Cc1ccc(OCc2ccc(F)cc2)cc1)C(=O)c1cn2cc(-c3ccc(Cl)cc3)ccc2n1
24 | ≤ 1000 nM | O=C(Cc1ccc(OCc2ccc(F)cc2)cc1)NC1(C(=O)O)Cc2ccc(-c3ccccc3Cl)cc2C1 (centres undefined)
25 | ≤ 1000 nM | O=C(NC(Cc1ccc(OCc2ccccc2F)cc1)C(=O)O)c1cn2cc(-c3ccc(Cl)cc3)ccc2n1 (centres undefined)
26 | ≤ 1000 nM | Cc1c(C(=O)N[C@@H](Cc2ccc(OCc3ccoc3)cc2)C(=O)O)oc2cc(-c3ccc(Cl)cc3)ccc12
27 | ≤ 1000 nM | O=C(NC(Cc1ccc(OCc2ccc(F)cc2)cc1)C(=O)O)c1nc2cc(-c3ccc(Cl)cc3)ccc2[nH]1 (centres undefined)
28 | ≤ 1000 nM | O=C(NC(Cc1ccc(OCc2cccc(F)c2)cc1)C(=O)O)c1cn2cc(-c3ccc(Cl)cc3)ccc2n1 (centres undefined)
29 | ≤ 1000 nM | O=C(NC(Cc1ccc(OCc2ccc(F)cc2)cc1)C(=O)O)c1cn2ccc(C#Cc3ccccc3)cc2n1 (centres undefined)

From ChEMBL document CHEMBL3714719, “Regulating agent of GPR34 receptor function” (2010)
